Experimental data published in patent publication US20230135373A1, “METHODS AND COMPOSITIONS FOR TREATING SLEEP APNEA” (APNIMED, INC. (DELAWARE), priority 2020, published 2023).

Legend:
[1] = system: healthy human individuals; assay: Pilot study of genioglossus muscle activity (EMGGG); format: in vivo
Method: In healthy human individuals, the effect of once daily taltirelin 5 mg on genioglossus muscle activity is measured in a pilot study.
A first group of the patients is given once daily taltirelin 5 mg. A second group of patients is given placebo. Genioglossus muscle activity (EMGGG, quantified as a percentage of maximum) is measured during quiet wakefulness. Each peak EMGGG of a single breath is measured and is plotted against the corresponding epiglottic pressure. In addition, EMGGG is measured during stable NREM sleep.

OSA human patients = assay: Placebo-controlled, double-blinded, randomized, crossover trial in OSA; format: in vivo; settings: once daily 5-10 mg, 30 minutes before sleep
Method: A placebo-controlled, double-blinded, randomized, crossover trial in OSA human patients is performed. Participants receive treatment (once daily taltirelin 5-10 mg) or placebo in randomized order 30 minutes before sleep.

CN1C(=O)C[C@@H](C(=O)N[C@@H](Cc2cnc[nH]2)C(=O)N2CCC[C@H]2C(N)=O)NC1=O [taltirelin]
EMGGG activity during NREM sleep compared to placebo ([1]; once daily 5 mg, NREM sleep): much higher EMGGG activity
effect during REM sleep ([1]; once daily 5 mg, subjects exhibiting REM sleep): effective during REM sleep
sleep-related reduction in pharyngeal muscle activity (EMGGG) ([1]; once daily taltirelin 5 mg vs placebo night, during sleep): partially or completely prevented
genioglossus muscle responsiveness to an increase in ventilatory drive (OSA human patients): increased genioglossus muscle responsiveness
oxygen levels (SaO2) (OSA human patients): increased oxygen levels
sleep efficiency (OSA human patients): improved sleep efficiency
total sleep time (OSA human patients): increased total sleep time
upper airway muscle activity (OSA human patients): improved upper airway muscle activity
ventilation (OSA human patients): improved ventilation
OSA severity (OSA human patients; all patients): improvement in OSA severity
apnea hypopnea index (OSA human patients; vs placebo): reduce the apnea hypopnea index
